ChEMBL document CHEMBL3872237, “Nitric oxide-donating derivatives of hederacolchiside A1: Synthesis and biological evaluation in vitro and in vivo as potential anticancer agents” (Bioorg Med Chem Lett, 2017)

Tests used:
Mus musculus [1] = test: Acute toxicity in mouse assessed as death at >168 mg/kg measured after 14 days; type: organism-based; settings: in vivo, 336 h
[2] = Solubility of the compound; type: physicochemical
[3] = Growth inhibition of human U251 cells after 48 hrs by MTT assay; type: functional, cell-based; settings: U-251, 48 h
[4] = Haemolytic activity in New Zealand rabbit erythrocytes after 60 mins; type: ADME, cell-based, Oryctolagus cuniculus, Erythrocyte; settings: read-out: HD50
[5] = Growth inhibition of human HCT116 cells after 48 hrs by MTT assay; type: functional, cell-based; settings: HCT-116, 48 h
[6] = Growth inhibition of human SMMC7721 cells after 48 hrs by MTT assay; type: functional, cell-based; settings: SMMC-7721, 48 h
[7] = Induction of NO release in DMSO incubated up to 6 hrs by Griess assay; type: physicochemical
[8] = Growth inhibition of human NCI-H460 cells after 48 hrs by MTT assay; type: functional, cell-based; settings: NCI-H460, 48 h
[9] = Antitumor activity against mouse H22 cells xenografted in nude Kunming mouse assessed as tumor growth inhibition at 10 mg/kg/day, iv for 14 days measured 24 hrs post last dose relative to control; type: functional; settings: read-out: TGI
[10] = Antitumor activity against mouse H22 cells xenografted in nude Kunming mouse assessed as tumor growth inhibition at 20 mg/kg/day, iv for 14 days measured 24 hrs post last dose relative to control; type: functional; settings: read-out: TGI
Mus musculus [11] = test: Toxicity in nude Kunming mouse xenografted with mouse H22 cells assessed as mouse death at 10 to 20 mg/kg/day, iv for 14 days measured 24 hrs post last dose; type: organism-based; settings: in vivo
Mus musculus [12] = test: Acute toxicity in mouse assessed as death at <8 mg/kg measured up to 1 hr; type: organism-based; settings: in vivo
[13] = Antiproliferative activity against human SMMC7721 cells after 48 hrs by resazurin reduction assay; type: functional, cell-based; settings: SMMC-7721, 48 h
[14] = Antiproliferative activity against human HCT116 cells after 48 hrs by resazurin reduction assay; type: functional, cell-based; settings: HCT-116, 48 h
[15] = Antiproliferative activity against human U251 cells after 48 hrs by resazurin reduction assay; type: functional, cell-based; settings: U-251, 48 h
[16] = Antitumor activity against mouse H22 cells xenografted in nude Kunming mouse assessed as tumor growth inhibition at 6 mg/kg/3 days for 5 times administered iv measured 24 hrs post last dose relative to control; type: functional; settings: read-out: TGI
[17] = Antiproliferative activity against human NCI-H460 cells after 48 hrs by resazurin reduction assay; type: functional, cell-based; settings: NCI-H460, 48 h

SMILES	Activity (Mus musculus [1])	solubility [2]	IC50 [3] [µM]	HC50 at 1 h [4] [µM]	IC50 [5] [µM]	IC50 [6] [µM]	Activity [7]	IC50 [8] [µM]	inhibition in vivo at 10 mg/kg/day [9] [%]	inhibition in vivo at 20 mg/kg/day [10] [%]	Activity (Mus musculus [11])	Activity (Mus musculus [12])	IC50 [13] [µM]	IC50 [14] [µM]	IC50 [15] [µM]	inhibition in vivo at 6 mg/kg [16] [%]	IC50 [17] [µM]
C[C@@H]1O[C@@H](O[C@H]2[C@H](O[C@H]3CC[C@]4(C)[C@H]5CC=C6[C@@H]7CC(C)(C)CC[C@]7(C(=O)OCCCOc7no[n+]([O-])c7S(=O)(=O)c7ccccc7)CC[C@@]6(C)[C@]5(C)CC[C@H]4C3(C)C)OC[C@H](O[C@@H]3O[C@H](CO)[C@@H](O)[C@H](O)[C@H]3O)[C@@H]2O)[C@H](O)[C@H](O)[C@H]1O	Non-Toxic	Insoluble	1.6	280	6.5	1.9	Active	3.1	38.3	51.5	Non-Toxic	–	–	–	–	–	–
CC(CCOc1no[n+]([O-])c1S(=O)(=O)c1ccccc1)OC(=O)[C@]12CCC(C)(C)C[C@H]1C1=CC[C@@H]3[C@@]4(C)CC[C@H](O[C@@H]5OC[C@H](O[C@@H]6O[C@H](CO)[C@@H](O)[C@H](O)[C@H]6O)[C@H](O)[C@H]5O[C@@H]5O[C@@H](C)[C@H](O)[C@@H](O)[C@H]5O)C(C)(C)[C@@H]4CC[C@@]3(C)[C@]1(C)CC2 (some centres not stated)	–	–	2.3	–	11.2	3.7	–	6.2	–	–	–	–	–	–	–	–	–
C[C@@H]1O[C@@H](O[C@H]2C(O[C@H]3CC[C@]4(C)[C@H]5CC=C6[C@@H]7CC(C)(C)CC[C@]7(C(=O)OC/C=C/COc7no[n+]([O-])c7S(=O)(=O)c7ccccc7)CC[C@@]6(C)[C@]5(C)CC[C@H]4C3(C)C)OC[C@H](O[C@@H]3O[C@H](CO)[C@@H](O)[C@H](O)[C@H]3O)[C@@H]2O)[C@H](O)[C@H](O)[C@H]1O (single isomer, unassigned)	–	–	3.1	–	10.1	4.5	–	6.8	–	–	–	–	–	–	–	–	–
C[C@@H]1O[C@@H](O[C@H]2C(O[C@H]3CC[C@]4(C)[C@H]5CC=C6[C@@H]7CC(C)(C)CC[C@]7(C(=O)OCCCCOc7no[n+]([O-])c7S(=O)(=O)c7ccccc7)CC[C@@]6(C)[C@]5(C)CC[C@H]4C3(C)C)OC[C@H](O[C@@H]3O[C@H](CO)[C@@H](O)[C@H](O)[C@H]3O)[C@@H]2O)[C@H](O)[C@H](O)[C@H]1O (single isomer, unassigned)	–	–	2.1	–	7.3	2.6	Active	3.4	–	–	–	–	–	–	–	–	–
C[C@@H]1O[C@@H](O[C@H]2C(O[C@H]3CC[C@]4(C)[C@H]5CC=C6[C@@H]7CC(C)(C)CC[C@]7(C(=O)O)CC[C@@]6(C)[C@]5(C)CC[C@H]4C3(C)C)OC[C@H](O[C@@H]3O[C@H](CO)[C@@H](O)[C@H](O)[C@H]3O)[C@@H]2O)[C@H](O)[C@H](O)[C@H]1O (single isomer, unassigned) [HEDERACOLCHISIDE A1]	–	Insoluble	2.2	6.7	8.4	2.8	–	3.7	–	–	–	Toxic	2.2 to 8.4	2.2 to 8.4	2.2 to 8.4	47.5	2.2 to 8.4
O=[N+]([O-])OCC(CO[N+](=O)[O-])O[N+](=O)[O-] [NITROGLYCERIN]	–	–	–	–	–	–	Active	–	–	–	–	–	–	–	–	–	–
